System: rabbit's isolated aorta
Test: KCl-induced contraction of the rabbit's isolated aorta (antispasmodic activity on the smooth muscles)
Format: cell-based
Conditions: Oryctolagus cuniculus, Godfraind method, read-out: ED50 (the source's name)
Source text: The compounds of the present invention are endowed with antispasmodic activity on the smooth muscles with has been established with the test of KCl--induced contraction of the rabbit's isolated aorta according to Godfraind and coll. (Arch. Int. Pharmacodyn., 172, 235, 1968).

IC50 [µg/mL] | Compound
1.3 | COc1cc(CN(C)CCN(C)CCC(c2ccccc2)c2ccccc2)cc(OC)c1OC [N1,N2-dimethyl-N1-(3,4,5-trimethoxybenzyl)-N2-(3,3-diphenylpropyl)-ethylenediamine dimaleate]
5.2 | COc1ccc(C(O)(CCN(C)CCN(C)Cc2ccccc2)c2ccc(OC)cc2)cc1 [N1,N2-dimethyl-N1-benzyl-N2-(3,3-di-p-methoxyphenyl-3-hydroxypropyl)-ethylenediamine dimaleate]
2.1 | CN(CC=C(c1ccccc1)c1ccccc1)CCN(C)Cc1ccccc1 [N1,N2-dimethyl-N1-benzyl-N2-(3,3-diphenylallyl)-ethylenediamine dimaleate]
4.6 | CN(CCC(c1ccccc1)c1ccccc1)CCN(C)Cc1ccccc1 [N1,N2-dimethyl-N1-benzyl-N2-(3,3-diphenylpropyl)-ethylenediamine dimaleate]
